Reference: paper PMC8131363 (Scientific Reports, 2021)
Where a name gives a salt, the structure may show the parent alone.

Key:
[1] = molecular target: domestic cat Calcium Sensing Receptor (cCaSR) (Felis catus)
[2] = molecular target: T1, cCaSR (Felis catus, UniProt C7FF08)
T1 sequence (C7FF08 1-1081): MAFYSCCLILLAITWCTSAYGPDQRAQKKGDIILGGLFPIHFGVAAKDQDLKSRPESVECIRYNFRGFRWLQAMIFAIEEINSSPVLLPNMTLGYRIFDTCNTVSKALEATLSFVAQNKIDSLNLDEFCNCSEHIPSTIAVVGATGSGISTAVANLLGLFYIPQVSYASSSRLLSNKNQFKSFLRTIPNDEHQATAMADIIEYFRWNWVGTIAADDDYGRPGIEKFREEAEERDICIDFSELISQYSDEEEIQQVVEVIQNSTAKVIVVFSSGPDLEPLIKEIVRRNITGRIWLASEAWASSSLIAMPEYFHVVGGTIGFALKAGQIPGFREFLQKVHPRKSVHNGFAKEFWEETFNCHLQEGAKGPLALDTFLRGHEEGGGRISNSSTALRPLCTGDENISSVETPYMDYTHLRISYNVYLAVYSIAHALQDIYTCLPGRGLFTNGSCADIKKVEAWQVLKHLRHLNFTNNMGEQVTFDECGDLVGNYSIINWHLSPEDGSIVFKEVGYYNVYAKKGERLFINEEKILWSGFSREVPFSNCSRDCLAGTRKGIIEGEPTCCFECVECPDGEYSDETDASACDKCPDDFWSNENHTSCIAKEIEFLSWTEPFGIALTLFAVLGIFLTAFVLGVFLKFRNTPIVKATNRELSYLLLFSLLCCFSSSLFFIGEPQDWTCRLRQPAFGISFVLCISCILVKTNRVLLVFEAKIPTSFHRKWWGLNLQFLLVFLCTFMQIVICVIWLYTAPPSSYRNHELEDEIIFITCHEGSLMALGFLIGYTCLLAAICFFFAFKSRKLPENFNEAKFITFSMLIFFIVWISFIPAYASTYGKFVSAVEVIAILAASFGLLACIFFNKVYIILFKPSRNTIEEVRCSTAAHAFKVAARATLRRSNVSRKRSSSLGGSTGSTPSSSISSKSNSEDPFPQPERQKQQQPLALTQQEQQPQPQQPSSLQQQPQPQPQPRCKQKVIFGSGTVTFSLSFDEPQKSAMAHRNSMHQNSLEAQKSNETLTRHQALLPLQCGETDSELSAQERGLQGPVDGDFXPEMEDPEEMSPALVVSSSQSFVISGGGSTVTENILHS
Protocol: (§1) The cCaSR expression constructs were stably-transfected in the mammalian cell line, HEK293/ T-REx/ natClytin. Transfections were performed by electroporation, following standard methodologies. Stably-transfected target and mock pools were obtained after 2–3 weeks of antibiotic selection, and clones were selected for testing. In order to evaluate the activity of each clone, 10 mM Calcium was injected onto the cells and the resulting luminescence was measured.
(§2) All compounds screened on the receptor were analysed in parallel with Calcium, on the HEK293/ T-REx/ natClytin-cCaSR or hCaSR stable or transient cell lines. Prior to the measurements, the cells were incubated with 10 µM of photoprotein substrate, Coelenterazine, prepared in Calcium-free Tyrode’s buffer at 37 °C for 3–4 h. All the data was captured using a FLIPR Tetra (Molecular Devices). A single or double injection protocol was used to capture the data for potential agonists and PAMs, respectively. The compounds tested were all prepared at desired concentration in Calcium-Free Tyrode’s buffer supplemented with 0.5% DMSO. For the activity determination of potential agonists, the single injection protocol was used, with CaCl2 as the positive control for each run. Each compound was injected into specific wells and the luminescence signal was measured for 1 min. for each compound. For potential PAMs, the double injection protocol was used. The first injection was identical to the one described above for potential agonists. A 20 min. resting period followed the first injection and a second injection of 0.5 mM CaCl2 in Calcium-free Tyrode’s buffer was injected to all wells, and the resulting luminescence signal was again measured for 1 min for each compound.
(§3) Dose–response curves were established by plotting signal amplitudes versus agonist concentration. For each compound, the % of maximum response was determined using a standard formula as follows:
(§4) The half maximal effective concentrations (EC50) were identified by nonlinear regression using a variable slope model with the equation Y = Bottom + (X^Hillslope)*(Top–Bottom)/ (X^HillSlope + EC50^HillSlope), where Y is the agonist concentration, Top and Bottom are the plateaus in the same units as Y and HillSlope is the Slope factor or Hill slope. […] In these cases the EC50 was noted as being higher than the maximum concentration used in the assay.

[3] = molecular target: T1, cCaSR; assay: cell-based
Protocol: as §1, §2, §3, §4

[4] = molecular target: T1, cCaSR; assay: cCaSR PAM luminescence assay, double injection with 0.5 mM CaCl2, HEK293/T-REx/natClytin-cCaSR; conditions: Supplementary Table I, PAM assay, dash = no activity
[5] = cCaSR activity, agonist assay, stable inducible cCaSR line, at least three wells
[6] = EC50 (M), agonist assay, stable inducible cCaSR line, > 0.01 M = maximal response not reached
[7] = EC50 Ago (M), Supplementary Table I, agonist assay, > 0.01 M = maximal response not reached

Row | Molecule | EC50 [3, 5] | EC50 PAM (M) [4] | EC50 [3, 6] | other results
1 | 3-Glutathionyl-S-methylindole (peptide) |  |  |  | EC50 of agonist activity, luminescence (natClytin) in HEK T-Rex/natClytin cells inducibly expressing cCaSR, calcium-free buffer; activity grade ++ [1]: 3.74 mM
2 | COC(=O)C(N)CC(=O)O (racemic) [DL-Aspartic acid α-methyl ester] | > 0.01 M | - |  | agonist activity on cCaSR (in words) [2]: agonist activity
3 | NC(CCCCC(=O)O)C(=O)O (stereo not drawn) [2-Aminopimelic acid] | > 0.01 M | - |  | EC50 Ago (M) ([2]; Supplementary Table I, agonist assay, dash = no activity): -
4 | COC(=O)C[C@H](N)C(=O)O [L-Aspartic acid β-methyl ester hydrochloride] | > 0.01 M | - |  | agonist activity on cCaSR (in words) [2]: agonist activity
5 | N[C@@H](CS(=O)(=O)O)C(=O)O [L-Cysteic acid monohydrate] | 0.001 to 0.01 M | - | 0.00234 M | agonist activity on cCaSR (in words) [2]: agonist activity; EC50 [3, 7]: 0.00234 M
6 | N[C@@H](CCS(=O)(=O)O)C(=O)O [L-Homocysteic acid] | > 0.01 M | - |  | 
7 | NC(=O)[C@@H](N)CCC(=O)O [L-Isoglutamine] | > 0.01 M | - |  | agonist activity on cCaSR (in words) [2]: agonist activity
8 | N[C@@H](Cc1ccc(OP(=O)(O)O)cc1)C(=O)O [O-Phospho-L-tyrosine] | > 0.01 M | - |  | agonist activity on cCaSR (in words) [2]: agonist activity
9 | NC[C@@H]1O[C@H](O[C@H]2[C@@H](O)[C@H](O[C@@H]3[C@@H](O)[C@H](N)C[C@H](N)[C@H]3O[C@H]3O[C@H](CO)[C@@H](O)[C@H](O)[C@H]3N)O[C@@H]2CO)[C@H](N)[C@@H](O)[C@@H]1O [Paromomycin sulfate salt, reference compound] |  | - | 0.00108 M | EC50 [3, 7]: 0.00108 M
10 | NC[C@H]1O[C@H](O[C@H]2[C@H](O[C@@H]3O[C@H](CO)[C@@H](O)[C@H]3O)[C@@H](O)[C@H](N)C[C@@H]2N)[C@H](N)[C@@H](O)[C@@H]1O [Ribostamycin sulfate salt, reference compound] | > 0.01 M | - |  | 
11 | N[C@@H](CCC(=O)N[C@@H](CSCCO)C(=O)NCC(=O)O)C(=O)O [S-(2-Hydroxyethyl)glutathione] | 0.001 to 0.01 M | - | 0.00211 M | EC50 [3, 7]: 0.0021 M
12 | CSC[C@H](NC(=O)CC[C@H](N)C(=O)O)C(=O)NCC(=O)O [S-Methylglutathione] | 0.001 to 0.01 M | - | 0.00442 M | EC50 [3, 7]: 0.00442 M
13 | C[Se]C[C@H](N)C(=O)O [Se-(Methyl)selenocysteine] | 0.001 to 0.01 M | - | 0.00447 M | agonist activity on cCaSR (in words) [2]: agonist activity; EC50 [3, 7]: 0.00447 M
14 | CN[C@@H]1[C@@H](O)[C@@H](O[C@@H]2[C@@H](O)[C@H](O[C@H]3OC(CN)=CC[C@H]3N)[C@@H](N)C[C@H]2N)OC[C@]1(C)O [Sisomicin sulfate salt, reference compound] |  | - | 0.000299 M | EC50 [3, 7]: 0.0003 M
15 | C[C@H](NC(=O)C[C@H](N)C(=O)O)C(=O)O [β-Asp-Ala] | > 0.01 M | - |  | 
16 | N[C@@H](CC(=O)NCC(=O)O)C(=O)O [β-Asp-Gly] | > 0.01 M | - |  | 
17 | CC(C)C[C@H](NC(=O)C[C@H](N)C(=O)O)C(=O)O [β-Asp-Leu] | > 0.01 M | - |  | EC50 [3, 7]: > 0.01 M
18 | N[C@@H](CC(=O)N[C@@H](Cc1ccccc1)C(=O)O)C(=O)O [β-Asp-Phe] | > 0.01 M | - |  | 
19 | N[C@H](CCC(=O)N[C@@H](Cc1c[nH]c2ccccc12)C(=O)O)C(=O)O [γ-D-Glu-Trp] |  | - | 0.0042 M | 
20 | N[C@@H](CCC(=O)N[C@@H](CS)C(=O)O)C(=O)O [γ-Glu-Cys] | > 0.01 M | - |  | 
21 | NC(=O)CC[C@H](NC(=O)CC[C@H](N)C(=O)O)C(=O)O [γ-Glu-Gln] | > 0.01 M | - |  | 
22 | N[C@@H](CCC(=O)N[C@@H](CCC(=O)O)C(=O)O)C(=O)O [γ-Glu-Glu] | 0.001 to 0.01 M | - | 0.00207 M | EC50 [3, 7]: 0.00206 M
23 | N[C@@H](CCC(=O)NCC(=O)O)C(=O)O [γ-Glu-Gly] | > 0.01 M | - |  | 
24 | CC(C)C[C@H](NC(=O)CC[C@H](N)C(=O)O)C(=O)O [γ-Glu-Leu] | > 0.01 M | - |  | 
25 | CSCC[C@H](NC(=O)CC[C@H](N)C(=O)O)C(=O)O [γ-Glu-Met] | > 0.01 M | - |  | EC50 ([3]; EC50 Value (heat map Fig. 5), cCaSR agonists, heat map): 0.00687 M
26 | N[C@@H](CCC(=O)N[C@@H](Cc1ccccc1)C(=O)O)C(=O)O [γ-Glu-Phe] | 0.001 to 0.01 M | - | 0.00232 M | 
27 | N[C@@H](CCC(=O)N[C@@H](Cc1c[nH]c2ccccc12)C(=O)O)C(=O)O [γ-Glu-Trp] | > 0.01 M | - |  | 
